Measurements published in publication PMC6204900 (The Journal of Biological Chemistry, 2018).
Entries after “also recorded” stand apart in the source; their conditions may differ. Where two headings read alike, the source gives them in different places.

What was measured:
IR-A [1] = molecular target: T1, IR-A (Homo sapiens, UniProt P06213); test: Whole-cell receptor-binding assay, IR-A in IM-9 lymphocytes; settings: as E1; measurement series ≈; read-out: IR-A Kd ± S.D. (n)
T1 construct: host or cells: human IM-9 lymphocytes
T1 sequence (P06213 28-1370 isoform P06213-2 limits assumed): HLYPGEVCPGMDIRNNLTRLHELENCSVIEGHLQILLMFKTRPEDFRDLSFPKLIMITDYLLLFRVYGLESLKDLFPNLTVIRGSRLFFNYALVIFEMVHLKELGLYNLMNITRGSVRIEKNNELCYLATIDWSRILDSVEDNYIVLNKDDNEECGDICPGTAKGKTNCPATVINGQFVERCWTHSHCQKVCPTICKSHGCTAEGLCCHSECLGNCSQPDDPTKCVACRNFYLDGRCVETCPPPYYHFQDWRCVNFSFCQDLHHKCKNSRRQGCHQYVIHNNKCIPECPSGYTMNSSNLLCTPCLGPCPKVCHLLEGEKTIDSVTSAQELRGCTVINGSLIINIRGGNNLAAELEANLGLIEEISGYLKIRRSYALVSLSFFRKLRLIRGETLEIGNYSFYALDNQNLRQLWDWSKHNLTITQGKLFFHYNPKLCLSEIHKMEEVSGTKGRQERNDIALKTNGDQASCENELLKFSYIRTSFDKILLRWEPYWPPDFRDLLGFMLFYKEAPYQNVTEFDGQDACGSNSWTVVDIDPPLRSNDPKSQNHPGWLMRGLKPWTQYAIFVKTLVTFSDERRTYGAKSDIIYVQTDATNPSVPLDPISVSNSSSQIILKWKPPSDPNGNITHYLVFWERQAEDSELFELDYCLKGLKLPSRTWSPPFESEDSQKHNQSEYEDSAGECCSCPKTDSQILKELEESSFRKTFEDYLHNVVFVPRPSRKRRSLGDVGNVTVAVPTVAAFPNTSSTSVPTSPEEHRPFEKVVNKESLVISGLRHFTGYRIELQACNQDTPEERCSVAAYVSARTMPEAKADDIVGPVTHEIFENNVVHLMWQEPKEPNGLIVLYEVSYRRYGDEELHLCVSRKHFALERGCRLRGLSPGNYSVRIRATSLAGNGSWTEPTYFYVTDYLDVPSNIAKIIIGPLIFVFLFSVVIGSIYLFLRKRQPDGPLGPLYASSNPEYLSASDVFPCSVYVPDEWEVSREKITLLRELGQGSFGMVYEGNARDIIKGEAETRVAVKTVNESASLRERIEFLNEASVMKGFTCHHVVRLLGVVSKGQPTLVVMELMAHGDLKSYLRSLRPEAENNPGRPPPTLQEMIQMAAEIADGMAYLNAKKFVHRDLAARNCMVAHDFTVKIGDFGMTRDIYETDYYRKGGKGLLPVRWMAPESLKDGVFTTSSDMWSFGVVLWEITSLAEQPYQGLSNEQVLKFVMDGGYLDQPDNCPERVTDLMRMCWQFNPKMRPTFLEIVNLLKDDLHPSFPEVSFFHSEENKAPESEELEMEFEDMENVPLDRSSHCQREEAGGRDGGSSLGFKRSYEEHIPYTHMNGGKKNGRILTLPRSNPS
T1 sequence (P06213 763-1382 partner limits assumed): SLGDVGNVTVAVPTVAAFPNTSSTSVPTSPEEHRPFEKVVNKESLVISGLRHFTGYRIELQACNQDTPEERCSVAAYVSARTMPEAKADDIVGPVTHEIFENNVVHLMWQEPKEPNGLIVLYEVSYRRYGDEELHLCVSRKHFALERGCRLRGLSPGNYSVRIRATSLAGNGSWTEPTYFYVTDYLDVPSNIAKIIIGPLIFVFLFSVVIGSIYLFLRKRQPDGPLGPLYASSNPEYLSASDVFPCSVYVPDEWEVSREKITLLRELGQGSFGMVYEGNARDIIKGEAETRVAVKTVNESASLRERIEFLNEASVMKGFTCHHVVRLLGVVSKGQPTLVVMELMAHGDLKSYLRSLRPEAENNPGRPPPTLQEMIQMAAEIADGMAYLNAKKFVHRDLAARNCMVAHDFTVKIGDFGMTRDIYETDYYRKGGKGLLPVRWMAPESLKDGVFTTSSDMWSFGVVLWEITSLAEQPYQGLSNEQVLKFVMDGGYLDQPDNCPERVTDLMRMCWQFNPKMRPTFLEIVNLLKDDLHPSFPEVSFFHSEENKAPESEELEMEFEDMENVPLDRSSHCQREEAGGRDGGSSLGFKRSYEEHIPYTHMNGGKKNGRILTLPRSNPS
From the text: (§1) Human IM-9 lymphocytes (containing IR-A) and IGF-1R null mouse embryonic fibroblasts, stably transfected with either human IR-B or human IGF-1R, were employed for a whole-cell receptor-binding assay as described previously ([32], [33], [42]). For details, see supporting information.
(§2) ULTIMATE 3000 RSLCnano (Dionex, Thermo Scientific) coupled to TripleTOFTM 5600 (SCIEX).
The extent of iodination in a specific position in the three fractions containing iodinated Tyr residues
was approximated by comparing the area of peaks corresponding to peptides containing TyrB16,
(§3) TyrB26 and TyrB32 and their iodinated counterparts.
Human IM-9 lymphocytes (containing IR-A) and IGF-1R null mouse embryonic fibroblasts,
stably transfected with either human IR-B or human IGF-1R, were employed for whole cell receptor-
binding assay as described previously (3-5).
binding buffer (100 mM HEPES, 100 mM NaCl, 5 mM KCl, 1.3 mM MgSO4, 1 mM EDTA, 10 mM
glucose, 15 mM NaOAc, 1 % w/v BSA, pH 7.6). After incubation 2 x 200 µL were centrifuged at
(§4) 15,000 x g for 10 min in microfuge tubes containing 200 µL of pre-cooled HEPES binding buffer.
Radioactive pellets were counted using the Gamma Counter Wizard 1470 (Perkin Elmer). Binding data
(§5) were analyzed by Excel software using a method of non-linear regression and a one-site fitting program […]
(§6) calculated using the two-tailed t test. […]

IGF-1R [2] = molecular target: T2, IGF-1R (Homo sapiens, UniProt P08069); test: Whole-cell receptor-binding assay, IGF-1R in transfected mouse embryonic fibroblasts
T2 construct: expressed in transfected cells; host or cells: CHO-K1 (ATCC) stably transfected with pcDNA3-IGF-1R vector (gift of R. O'Connor); polyclonal CHO-R+ population
From the text: as §1, §2
The extent of iodination in a specific position in the three fractions containing iodinated Tyr residues […]
was approximated by comparing the area of peaks corresponding to peptides containing TyrB16, […]
as §3
Human IM-9 lymphocytes (containing IR-A) and IGF-1R null mouse embryonic fibroblasts, […]
stably transfected with either human IR-B or human IGF-1R, were employed for whole cell receptor- […]
binding assay as described previously (3-5). […]
binding buffer (100 mM HEPES, 100 mM NaCl, 5 mM KCl, 1.3 mM MgSO4, 1 mM EDTA, 10 mM […]
glucose, 15 mM NaOAc, 1 % w/v BSA, pH 7.6). After incubation 2 x 200 µL were centrifuged at […]
as §4
Radioactive pellets were counted using the Gamma Counter Wizard 1470 (Perkin Elmer). Binding data […]
as §5
developed in the laboratory of Dr. Pierre De Meyts (A.V. Groth and R.M. Shymko, Hagedorn Research […]
Institute, Denmark, a kind gift of Pierre De Meyts). […]
set up to 0.3 nM. Receptor binding assays were performed under conditions excluding the depletion of […]
as §6
Following the incubation, the cells were washed twice with ice-cold binding buffer and solubilized with 0.1 M NaOH. Cell-associated radioactivity was counted using the Gamma Counter Wizard 1470 (Perkin Elmer). Binding data were analyzed by and the dissociation constant (Kd) was determined with GraphPad Prism 5 using a non-linear regression, a one-site fitting program and taking into account potential depletion of free ligand.
Each binding curve was determined […]

IGF-1R [3] = molecular target: T2, IGF-1R; test: Association, dissociation and accelerated dissociation kinetics of 125I-labeled ligands on IGF-1R in CHO-R+ cells; assay type: binding; settings: for (d1) dissociation rate at maximum acceleration ± S.D., IGF-1R / dissociation rate (measured) ± S.D., IGF-1R: 15°C; for (d1) dissociation rate at maximum acceleration ± S.D., IGF-1R: dissociation of 125I-labeled ligand in the presence of 170 nM cold ligand (17 μM for insulin), monoexponential decay fit; for dissociation rate (measured) ± S.D., IGF-1R: dissociation of 125I-labeled ligand without cold ligand; for Shape of dose-response curve for accelerated dissociation, IGF-1R: 125I-labeled ligand preincubated […] at 15°C, cold ligand 0.001 nM-10 µM for 30 min at 15°C
Description: (§7) For details, see supporting information.
(§8) HEPES binding buffer. The use of bovine serum albumin in the binding buffer (e.g. Sigma-Aldrich […]
(§9) Following the incubation, the cells were washed twice with ice-cold binding buffer and solubilized with 0.1 M NaOH. Cell-associated radioactivity was counted using the Gamma Counter Wizard 1470 (Perkin […]
(§10) Each binding curve was determined
(§11) For dose-response curves for accelerated dissociation the cells (3 x 10^7/mL) in HEPES binding buffer were preincubated with the radio-labeled ligand (about 2500 Ci/mmol, 150,000 cpm/mL, about 0.03 nM) for 2.5 hours at 15°C. After the preincubation, the suspension was centrifuged at 1000 x g, 4°C for 5 min and the supernatant containing the unbound radioactivity was discarded. The pellet was resuspended in the initial volume of buffer.

IR-A [4] = molecular target: T1, IR-A; test: Association, dissociation and accelerated dissociation kinetics of 125I-labeled ligands on IR-A in IM-9 cells; assay type: binding
Description: as §7, §8, §9, §10, §11

IGF-1R [5] = molecular target: T2, IGF-1R; test: Receptor phosphorylation assay (immunoblotting), IGF-1R-transfected mouse fibroblasts (R+39); assay type: cell-based; settings: 10 nM ligand, 10 min, n ≥ 4
From the text: For details, see supporting information. […] Each experiment was repeated four times.

IGF-1R [6] = molecular target: T2, IGF-1R; test: Ligand-dose response IGF-1R autophosphorylation, In-Cell Western assay; assay type: cell-based; settings: 0.1-100 nM ligand, 20 min, relative to 10 nM IGF-1
Description: Ligand–dose response IGF-1R autophosphorylation levels for selected analogs were determined, using the In-Cell Western assay adapted for chemiluminescence as described ([34]). […] Experiments were repeated at least four times. Log(agonist) versus response curve fitting of data was carried out with GraphPad Prism 5.
Mean ± S.D. (n ≥ 4) values were calculated.
one-way analysis of variance (ANOVA) with Dunnett’s test comparing all analogs versus control i.e.
Ligand-dose response IGF-1R autophosphorylation levels for selected analogs were determined, using In-Cell Western assay adapted for chemiluminiscence as described in (6). The IGF-1R cells were plated at 20,000 cells/well in white 96-well Brand plates cell grade (Brand GMBH, Germany) and incubated for 24 hours. Cells were afterwards starved for 4 hours in serum-free media and stimulated with dilutions of ligands (0-100 nM) for 20 min. After the incubation, the medium was discarded and the cells were fixed in 3.75 % v/v freshly prepared formaldehyde for 20 min. […]
Then plates were thoroughly washed with TBS and incubated with peroxidase-labeled anti-rabbit secondary antibody (Sigma) for 1 hour at room temperature, and washed again. SuperSignal West Femto maximum sensitivity substrate was added to each well and chemiluminiscence was detected using the ChemiDoc MP Imaging System after 5 min. […]

Kd (IR-A [1]) | Kd (IGF-1R [2]; IGF-1R null mouse embryonic fibroblasts transfected with human IGF-1R, competition with mono-125I-IGF-1 (about 0.01 nM), 16 h at 5°C, HEPES binding buffer, mean ± S.D. of n≥3 binding curves, measurement series #) | (d1) dissociation rate at maximum acceleration ± S.D., IGF-1R (IGF-1R [3]) | dissociation rate (measured) ± S.D., IGF-1R (IGF-1R [3]) | Shape of dose-response curve for accelerated dissociation, IGF-1R (IGF-1R [3]) | Kd (IGF-1R [2]; as E12, measurement series $, read-out: IGF-1R Kd ± S.D. (n)) | Increase of binding to IGF-1R compared with insulin (IGF-1R [2]; from Table 1 binding affinities) | (d1) dissociation rate at maximum acceleration ± S.D., IR-A (IR-A [4]; 15°C, dissociation of 125I-labeled ligand in the presence of 170 nM cold ligand, monoexponential decay fit) | dissociation rate (measured) ± S.D., IR-A (IR-A [4]; 15°C, dissociation of 125I-labeled ligand without cold ligand) | Shape of dose-response curve for accelerated dissociation, IR-A (IR-A [4]; 125I-labeled ligand preincubated […] at 15°C, cold ligand 0.001 nM-10 µM for 30 min at 15°C) | Dose-response of IGF-1R stimulation (IGF-1R [6]) | Substance | Ability to stimulate IGF-1R phosphorylation (IGF-1R [5])
2.92 ± 0.24 nM | 2.32 ± 1.24 nM |  |  |  |  |  |  |  |  |  | IGF-2: insulin-like growth factor 2, protein hormone closely related to insulin | 
 |  | 0.0203 ± 0.0038 min⁻¹ | 0.0064 ± 0.0035 min⁻¹ | sigmoid | 0.89 ± 0.2 nM | about 150 fold | 0.0432 ± 0.0032 min⁻¹ | 0.0017 ± 0.0002 min⁻¹ | bell-shaped | equipotent to IGF-2 | [D-His^B24, Gly^B31, Tyr^B32]-insulin | increased stimulation of the receptor; also recorded: to an extent approximating IGF-2
 |  | 0.0069 ± 0.0004 min⁻¹ | 0.0026 ± 0.0010 min⁻¹ | sigmoid |  |  |  |  |  |  | insulin [reference compound] | 
